{"source": "patent US5905187A", "about": "(priority 1997, dated 1999)", "assay_type_in_all_cases": "cell-based", "key": {"[1]": {"test_system": "Fusarium graminearum"}, "[2]": {"test_system": "Sclerotinia sclerotiorum"}, "[3]": {"test_system": "Sclerotinia trifoliorum"}, "[4]": {"test_system": "Fusarium moniliforme"}, "[5]": {"test_system": "Aspergillus flavus"}, "[6]": {"test_system": "Alternaria longipes"}, "[7]": {"test_system": "plant pathogenic fungi"}}, "note": "“Also recorded” adds a separate entry of the source. No end group written: not given here.", "data": [{"sequence": "RSGRGECRRQCLRRHEGQPWETQECMRRCRRRGG (cysteine pairing not given here) [CMIII]", "values": [{"measurement": "inhibition of Fusarium graminearum", "setting": "[1]; at a concentration of 112 μg/mL", "value": "inhibitory activity"}, {"measurement": "concentration down to which Fusarium graminearum was noticeably inhibited", "setting": "[1]; other studies", "value": 3.8, "unit": "µM"}, {"measurement": "concentrations at which inhibition of S. sclerotiorum was not observed", "setting": "[2]", "value": "below 30.4 micromolar"}, {"measurement": "inhibition of Sclerotinia isolates (S. sclerotiorum)", "setting": "[2]", "value": "inhibited strongly"}, {"measurement": "inhibition of Sclerotinia sclerotiorum", "setting": "[2]", "value": "inhibitory activity"}, {"measurement": "concentrations at which inhibition of S. trifoliorum was not observed", "setting": "[3]", "value": "below 15.2 micromolar"}, {"measurement": "inhibition of Sclerotinia isolates (S. trifoliorum)", "setting": "[3]", "value": "inhibited strongly"}, {"measurement": "inhibition of Sclerotinia trifoliorum", "setting": "[3]", "value": "inhibitory activity"}, {"measurement": "concentration down to which Fusarium moniliforme was noticeably inhibited", "setting": "[4]", "value": 3.8, "unit": "µM"}, {"measurement": "inhibition of Fusarium moniliforme", "setting": "[4]", "value": "slightly inhibited; also recorded: not completely inhibited"}, {"measurement": "inhibition of Aspergillus flavus", "setting": "[5]", "value": "slightly inhibited; also recorded: slight inhibition"}, {"measurement": "effect on A. longipes", "setting": "[6]; at 3 μM, yet another study", "value": "not affected"}, {"measurement": "concentration showing noticeable inhibition of Alternaria longipes", "setting": "[6]; other studies, most sensitive of the fungi", "value": 1.9, "unit": "µM"}, {"measurement": "CMIII activity in the presence of plant cell extracts", "setting": "[7]", "value": "reduced substantially"}]}]}
